Experiments:
Type in all cases: functional, cell-based
CP67-MEL = experiment: SANGER: Inhibition of human CP67-MEL cell growth in a cell viability assay.
EW-12 = experiment: SANGER: Inhibition of human EW-12 cell growth in a cell viability assay.
KP-N-RT-BM-1 = experiment: SANGER: Inhibition of human KP-N-RT-BM-1 cell growth in a cell viability assay.
NCI-H128 = experiment: SANGER: Inhibition of human NCI-H128 cell growth in a cell viability assay.
NCI-H2107 = experiment: SANGER: Inhibition of human NCI-H2107 cell growth in a cell viability assay.
SKM-1 = experiment: SANGER: Inhibition of human SKM-1 cell growth in a cell viability assay.
D-423MG = experiment: cells; conditions: Homo sapiens
Description: SANGER: Inhibition of human D-423MG cell growth in a cell viability assay.

D-566MG = experiment: cells; conditions: Homo sapiens
EPLC-272H = experiment: cells; conditions: Homo sapiens
Description: SANGER: Inhibition of human EPLC-272H cell growth in a cell viability assay.

H-EMC-SS = experiment: cells; conditions: Homo sapiens
Description: SANGER: Inhibition of human H-EMC-SS cell growth in a cell viability assay.

KNS-62 = experiment: cells; conditions: Homo sapiens;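 note: inhibition of cell growth, read out with a cell viability assay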
Description: SANGER: Inhibition of human KNS-62 cell growth in a cell viability assay.

LU-135 = experiment: cells; conditions: Homo sapiens
Description: SANGER: Inhibition of human LU-135 cell growth in a cell viability assay.

NBsusSR = experiment: cells; conditions: Homo sapiens;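 note: growth inhibition of the human cell line, read out with a cell viability assay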
Description: SANGER: Inhibition of human NBsusSR cell growth in a cell viability assay.

NCI-H1048 = experiment: cells; conditions: Homo sapiens;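 note: growth inhibition of human NCI-H1048 cells, read out with a cell viability assay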
Description: SANGER: Inhibition of human NCI-H1048 cell growth in a cell viability assay.

NCI-H1666 = experiment: cells; conditions: Homo sapiens;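 note: growth inhibition of the cell line, read out with a cell viability assay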
Description: SANGER: Inhibition of human NCI-H1666 cell growth in a cell viability assay.

NCI-H2029 = experiment: cells; conditions: Homo sapiens;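 note: Read-out is a viability assay on the cultured cells, and IC50 is the concentration that suppresses cell growth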
Description: SANGER: Inhibition of human NCI-H2029 cell growth in a cell viability assay.

NCI-H2291 = experiment: cells; conditions: Homo sapiens
Description: SANGER: Inhibition of human NCI-H2291 cell growth in a cell viability assay.

OC-314 = experiment: cells; conditions: Homo sapiens
Description: SANGER: Inhibition of human OC-314 cell growth in a cell viability assay.

RH-18 = experiment: cells; conditions: Homo sapiens, Rh18;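 note: growth inhibition of human RH-18 cells, read out with a cell viability assay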
Description: SANGER: Inhibition of human RH-18 cell growth in a cell viability assay.

SW 1116 = experiment: cells; conditions: Homo sapiens;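 note: growth inhibition of SW1116 cells, read out with a cell viability assay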
Description: SANGER: Inhibition of human SW1116 cell growth in a cell viability assay.

SW900 = experiment: cells; conditions: Homo sapiens;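 note: IC50 is the concentration that inhibits SW900 cell growth, measured by a cell viability assay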
Description: SANGER: Inhibition of human SW900 cell growth in a cell viability assay.

A549 = experiment: cells; conditions: Homo sapiens;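 note: growth inhibition of A549 cells, read out with a cell viability assay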
Description: SANGER: Inhibition of human A549 cell growth in a cell viability assay.

BALL-1 = experiment: cells; conditions: Homo sapiens;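 note: growth inhibition of BALL-1 cells, read out with a cell viability assay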
Description: SANGER: Inhibition of human BALL-1 cell growth in a cell viability assay.

TGBC11TKB = experiment: cells; conditions: Homo sapiens;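 note: growth inhibition of human TGBC11TKB cells, measured by a cell viability assay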
Description: SANGER: Inhibition of human TGBC11TKB cell growth in a cell viability assay.

ZR-75-30 = experiment: cells; conditions: Homo sapiens;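 note: growth inhibition of ZR-75-30 cells, measured with a cell viability readout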
Description: SANGER: Inhibition of human ZR-75-30 cell growth in a cell viability assay.

CFPAC-1 = experiment: cells; conditions: Homo sapiens;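 note: cell viability readout used to gauge suppression of CFPAC-1 cell proliferation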
Description: SANGER: Inhibition of human CFPAC-1 cell growth in a cell viability assay.

CHP-134 = experiment: SANGER: Inhibition of human CHP-134 cell growth in a cell viability assay.
Calu-1 = experiment: SANGER: Inhibition of human Calu-1 cell growth in a cell viability assay.
Caov-3 cell line = experiment: cells; conditions: Homo sapiens;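 note: cell growth inhibition read out by a viability assay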
Description: SANGER: Inhibition of human Caov-3 cell growth in a cell viability assay.

DMS-53 = experiment: cells; conditions: Homo sapiens;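 note: cell viability assay measuring growth inhibition of human DMS-53 cells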
Description: SANGER: Inhibition of human DMS-53 cell growth in a cell viability assay.

DV-90 = experiment: cells; conditions: Homo sapiens;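 note: Read-out is a viability assay, with IC50 reflecting the drop in DV-90 cell growth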
Description: SANGER: Inhibition of human DV-90 cell growth in a cell viability assay.

EFE-184 = experiment: cells; conditions: Homo sapiens
Description: SANGER: Inhibition of human EFE-184 cell growth in a cell viability assay.

HCC1143 = experiment: cells; conditions: Homo sapiens;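 note: growth inhibition of human HCC1143 cells, read out with a cell viability assay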
Description: SANGER: Inhibition of human HCC1143 cell growth in a cell viability assay.

IPC-298 = experiment: SANGER: Inhibition of human IPC-298 cell growth in a cell viability assay.
MDA-MB-468 = experiment: cells; conditions: Homo sapiens
Description: SANGER: Inhibition of human MDA-MB-468 cell growth in a cell viability assay.

MFE-296 = experiment: SANGER: Inhibition of human MFE-296 cell growth in a cell viability assay.
NCI-H1618 = experiment: cells; conditions: Homo sapiens;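 note: growth inhibition of human NCI-H1618 cells, measured by a cell viability assay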
Description: SANGER: Inhibition of human NCI-H1618 cell growth in a cell viability assay.

NCI-H1734 = experiment: cells; conditions: Homo sapiens;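 note: growth inhibition of human NCI-H1734 cells, read out with a cell viability assay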
Description: SANGER: Inhibition of human NCI-H1734 cell growth in a cell viability assay.

NCI-H2227 = experiment: cells; conditions: Homo sapiens;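 note: growth inhibition of the human cell line, read out with a cell viability assay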
Description: SANGER: Inhibition of human NCI-H2227 cell growth in a cell viability assay.

NCI-H838 = experiment: cells; conditions: Homo sapiens;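 note: growth inhibition of human NCI-H838 cells, read out by a cell viability assay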
Description: SANGER: Inhibition of human NCI-H838 cell growth in a cell viability assay.

PLC-PRF-5 = experiment: cells; conditions: Homo sapiens;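 note: growth inhibition of human PLC-PRF-5 cells, read out with a viability assay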
Description: SANGER: Inhibition of human PLC-PRF-5 cell growth in a cell viability assay.

RT-4 = experiment: SANGER: Inhibition of human RT4 cell growth in a cell viability assay.
SK-CO-1 = experiment: cells; conditions: Homo sapiens;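 note: growth inhibition of SK-CO-1 cells, determined by a viability readout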
Description: SANGER: Inhibition of human SK-CO-1 cell growth in a cell viability assay.

SNG-M = experiment: cells; conditions: Homo sapiens
Description: SANGER: Inhibition of human SNG-M cell growth in a cell viability assay.

SNU-475 = experiment: cells; conditions: Homo sapiens
Description: SANGER: Inhibition of human SNU-475 cell growth in a cell viability assay.

C-4-II = experiment: SANGER: Inhibition of human C-4-II cell growth in a cell viability assay.
TT = experiment: cells; conditions: Homo sapiens
Description: SANGER: Inhibition of human TT cell growth in a cell viability assay.

CCF-STTG1 = experiment: cells; conditions: Homo sapiens;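 note: growth inhibition of human CCF-STTG1 cells, determined with a cell viability read-out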
Description: SANGER: Inhibition of human CCF-STTG1 cell growth in a cell viability assay.

COLO 205 = experiment: cells; conditions: Homo sapiens
Description: SANGER: Inhibition of human COLO-205 cell growth in a cell viability assay.

Measured: IC50

CCNc1cc(N[C@H]2CC[C@@H](O)CC2)nc(Nc2ccc3c(ccn3Cc3ccccc3)c2)n1
> 5.12 µM: CP67-MEL | EW-12 | KP-N-RT-BM-1 | NCI-H128 | NCI-H2107 | SKM-1

O=c1cc(N2CCOCC2)oc2c(-c3cccc4c3sc3ccccc34)cccc12
> 2 µM: D-566MG | EPLC-272H | H-EMC-SS | KNS-62 | LU-135 | NBsusSR | NCI-H1048 | NCI-H1666 | NCI-H2029 | NCI-H2291 | OC-314 | RH-18 | SW 1116 | SW900 | A549 | BALL-1 | TGBC11TKB | ZR-75-30 | CFPAC-1 | CHP-134
1.69 µM: D-423MG

N#C/C(=C1/Nc2ccccc2S1)c1ccnc(NCCc2cccnc2)n1
> 8 µM: Calu-1 | Caov-3 cell line | DMS-53 | DV-90 | MDA-MB-468 | NCI-H1618 | NCI-H1734 | NCI-H2227 | NCI-H838 | PLC-PRF-5 | RT-4 | SK-CO-1 | SNU-475 | C-4-II | TT | COLO 205
6.41 µM: CCF-STTG1
4.7 µM: EFE-184
1.55 µM: MFE-296
7.4 µM: IPC-298
4.21 µM: HCC1143
0.98 µM: SNG-M

COc1cc(C)c(Sc2cnc(NC(=O)c3ccc(CNC(C)C(C)(C)C)cc3)s2)cc1C(=O)N1CCN(C(C)=O)CC1 (stereo not given)
> 10.2 µM: CP67-MEL | EW-12 | KP-N-RT-BM-1 | NCI-H128 | NCI-H2107 | SKM-1

C/C(O)=C(\C#N)C(=O)Nc1cc(Br)ccc1Br
> 16 µM: Calu-1 | Caov-3 cell line | DMS-53 | DV-90 | EFE-184 | HCC1143 | IPC-298 | MDA-MB-468 | MFE-296 | NCI-H1618 | NCI-H1734 | NCI-H2227 | NCI-H838 | PLC-PRF-5 | RT-4 | SK-CO-1 | SNG-M | SNU-475 | C-4-II | TT | CCF-STTG1 | COLO 205

Cc1n[nH]c2ccc(-c3cncc(OC[C@@H](N)Cc4c[nH]c5ccccc45)c3)cc12 [A-443654]
0.958 µM: NCI-H2107
0.313 µM: CP67-MEL
> 1.02 µM: EW-12 | NCI-H128 | SKM-1
0.911 µM: KP-N-RT-BM-1

CC(O)(CS(=O)(=O)c1ccc(F)cc1)C(=O)Nc1ccc(C#N)c(C(F)(F)F)c1 (stereo not given) [BICALUTAMIDE]
> 1.02 µM: Calu-1 | Caov-3 cell line | DMS-53 | DV-90 | EFE-184 | HCC1143 | IPC-298 | MDA-MB-468 | MFE-296 | NCI-H1618 | NCI-H1734 | NCI-H2227 | NCI-H838 | PLC-PRF-5 | RT-4 | SK-CO-1 | SNG-M | SNU-475 | C-4-II | TT | CCF-STTG1 | COLO 205
